Measurements reported in PMC3787887 (International Journal of Oncology, 2013).
Values joined by “and” are separate entries in the source; they are usually repeats but may differ in a detail not shown here. Equal entries are not always repeated.

Key:
[1] = Plasma and tumor drug levels at end of xenograft study; type: in vivo, nude mice
[2] = Pharmacokinetic study in mice, plasma PS metabolites by HPLC; type: in vivo
A549 cells [3] = experiment: Cellular uptake of PS, A549; type: cell-based, human; conditions: 1 h; for increase in the intracellular accumulation of PS by transporter inhibitor: co-incubation with 100 μM PS
SW480 cells = experiment: Cellular uptake of PS, SW480; type: cell-based, human; conditions: 1 h; for enhancement of the cellular accumulation of PS by transporter inhibitor: co-incubation with 100 μM PS
A549 cells [4] = experiment: Cell growth inhibition; type: cell-based, human; conditions: PS 80 μM 24 h, curcumin 100 μM pretreatment
A549 cells [5] = experiment: Apoptotic cell death analysis; type: cell-based, human; conditions: 20-h incubation
A549 xenografts = experiment: A549 subcutaneous xenografts in nude mice; type: in vivo; conditions: for inhibition of human lung cancer xenografts (abstract, measure not named): PS 200 mg/kg, curcumin 500 mg/kg, oral gavage; for tumor volume at the end of the study: day 36, mean ± SEM; for reduction in tumor volume: end of study
[6] = tested on: human lung cancer xenografts; conditions: cited from earlier work
lung cancer = conditions: pre-clinical models of lung cancer; cited from earlier work
[7] = PS 200 mg/kg/d, curcumin 500 mg/kg/d
[8] = vs control, PS 200 mg/kg/d, curcumin 500 mg/kg/d
[9] = plasma metabolite after PS 200 mg/kg + curcumin 500 mg/kg in 10% Tween-80
[10] = plasma metabolite after PS 200 mg/kg + curcumin 500 mg/kg in micelles
[11] = plasma metabolite after single oral dose PS 200 mg/kg alone
[12] = curcumin 25 μM co-added with PS

## COc1cc(/C=C/C(=O)CC(=O)/C=C/c2ccc(O[C@@H]3O[C@H](C(=O)O)[C@@H](O)[C@H](O)[C@H]3O)c(OC)c2)ccc1O [curcumin glucuronide]
[1]
  detection in A549 xenografts: Neither curcumin, nor its glucuronide, was detected
[1]; curcumin and PS plus curcumin groups
  level in the plasma: minute levels

## CC1=C(CC(=O)O)c2cc(F)ccc2/C1=C\c1ccc([S+](C)[O-])cc1 (stereo not shown) [Sulindac, sulindac, reference compound]
[2]; PS co-administered with curcumin in 10% Tween-80
  increase of Cmax vs PS alone: 70%
[2]; PS co-administered with curcumin in nanoparticles
  increase of Cmax vs PS alone: 40%
[1]
  level in A549 xenografts, PS plus curcumin group vs PS alone group: 1 fold higher

## COc1ccc(CCN(C)CCCC(C#N)(c2ccc(OC)c(OC)c2)C(C)C)cc1OC (stereo not shown) [verapamil]
A549 cells [3]
  increase in the intracellular accumulation of PS by transporter inhibitor: no effect
SW480 cells
  enhancement of the cellular accumulation of PS by transporter inhibitor: 67%

## CCOP(=O)(OCC)OCCCCOC(=O)CC1=C(C)/C(=C/c2ccc([S+](C)[O-])cc2)c2ccc(F)cc21 (stereo not shown) [PS, Phospho-sulindac]
A549 cells [4]
  reduction of cell viability: 30%
A549 cells [5]; PS 80 μM alone or with curcumin 100 μM
  percentage of apoptotic cells: 3.9%
A549 cells [5]; PS 100 μM alone or with curcumin 100 μM
  percentage of apoptotic cells: 5.0%
A549 xenografts
  inhibition of human lung cancer xenografts (abstract, measure not named): 25%
A549 xenografts; [7]
  adverse effects on the mice during the study: no apparent adverse effects
  body weight at sacrifice: 23 ± 1 g
  effect on the growth of A549 xenografts (in words): did not significantly inhibit
  tumor volume at the end of the study: 419±36 mm^3
A549 xenografts; [8]
  reduction in tumor volume: 19.6% and 20%
A549 xenografts; end-point, vs control, PS 200 mg/kg/d, curcumin 500 mg/kg/d
  reduction in tumor weight: 27%
[2]; any of the three treatments
  intact PS in plasma: not detected
[2]; single oral dose PS 200 mg/kg, curcumin 500 mg/kg
  total plasma AUC0–24 h (sum of all metabolites): 211 µM·h
[6]
  efficacy as a single agent in the treatment of human lung cancer xenografts: ineffective

## CC1=C(CC(=O)O)c2cc(F)ccc2/C1=C\c1ccc(S(C)(=O)=O)cc1 [Sulindac sulfone, sulindac sulfone]
[2]; [9]
  Cmax: 11.7 µM
  Tmax: 4 h
[2]; [10]
  Cmax: 7.7 µM
  Tmax: 4 h
[2]; [11]
  Cmax: 5.6 µM
  Tmax: 4 h
[1]
  level in A549 xenografts, PS plus curcumin group vs PS alone group: 5 fold higher

## COc1ccc2c3c([nH]c2c1)[C@H](CC(C)C)N1C(=O)[C@H](CCC(=O)OC(C)(C)C)NC(=O)[C@@H]1C3 [Ko143]
A549 cells [3]
  increase in the intracellular accumulation of PS by transporter inhibitor: no effect

## CN(C)C(=O)CCSC(SCCC(=O)O)c1cccc(/C=C/c2ccc3ccc(Cl)cc3n2)c1 (stereo not shown) [MK571]
A549 cells [3]
  increase in the intracellular accumulation of PS by transporter inhibitor: 51%
SW480 cells
  enhancement of the cellular accumulation of PS by transporter inhibitor: 30%

## CSc1ccc(/C=C2/C(C)=C(CC(=O)O)c3cc(F)ccc32)cc1 [Sulindac sulfide, sulindac sulfide]
[1]
  level in A549 xenografts, PS plus curcumin group vs PS alone group: 3 fold higher

## COc1cc(/C=C/C(=O)CC(=O)/C=C/c2ccc(O)c(OC)c2)ccc1O [curcumin, Curcumin, reference compound]
A549 cells [4]
  reduction of cell viability: 4%
A549 cells [3]; curcumin 5 μM co-added with PS
  increase of intracellular levels of PS: 23%
A549 cells [3]; [12]
  increase of intracellular levels of PS: 60%
SW480 cells; curcumin 5 μM co-added with PS
  increase of uptake of PS: 37%
SW480 cells; [12]
  increase of uptake of PS: 54%
A549 xenografts
  inhibition of human lung cancer xenografts (abstract, measure not named): no effect
A549 xenografts; [7]
  adverse effects on the mice during the study: no apparent adverse effects
  body weight at sacrifice: 23 ± 1 g
  effect on the growth of A549 xenografts (in words): did not significantly inhibit
  tumor volume at the end of the study: 599±98 mm^3
A549 xenografts; [8]
  reduction in tumor volume: no inhibition
Lung cancer
  efficacy as a single agent: < 30%
